Source: ChEMBL document CHEMBL1201862, “PubChem BioAssay data set” (2004)
Values joined by “and” are separate entries in the source; they are usually repeats but may differ in a detail not shown here. Equal entries are not always repeated. “Also recorded” adds a separate entry of the source. Active and inactive are the calls of the source.

Legend:
[1] = target: T1, High affinity choline transporter 1 (Homo sapiens, UniProt Q9GZV3); assay: CHT inhibitors, dose response, cell-based, 5-point CRC, membrane potential dye (AID 504840); assay type: functional
T1 sequence (Q9GZV3 whole entry): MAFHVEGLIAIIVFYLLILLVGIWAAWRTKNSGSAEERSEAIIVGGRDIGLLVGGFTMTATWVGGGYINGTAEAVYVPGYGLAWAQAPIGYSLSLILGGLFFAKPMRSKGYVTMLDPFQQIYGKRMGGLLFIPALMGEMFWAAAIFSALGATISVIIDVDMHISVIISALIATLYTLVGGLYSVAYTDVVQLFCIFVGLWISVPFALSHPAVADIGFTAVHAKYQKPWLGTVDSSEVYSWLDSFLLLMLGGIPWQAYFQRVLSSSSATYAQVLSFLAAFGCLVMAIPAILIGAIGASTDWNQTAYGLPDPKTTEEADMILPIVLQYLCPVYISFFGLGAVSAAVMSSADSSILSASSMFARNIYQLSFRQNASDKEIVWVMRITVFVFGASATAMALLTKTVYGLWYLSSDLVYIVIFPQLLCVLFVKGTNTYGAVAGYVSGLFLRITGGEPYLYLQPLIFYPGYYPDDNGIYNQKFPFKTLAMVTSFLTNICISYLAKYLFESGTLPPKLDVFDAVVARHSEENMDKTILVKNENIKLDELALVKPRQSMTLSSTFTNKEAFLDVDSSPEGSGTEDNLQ

[2] = target: T2, Short transient receptor potential channel 4 (Mus musculus, UniProt Q9QUQ5); assay: mouse TRPC4 channel inhibitors, dose response, cell-based, HEK293 TRPC4/mu-opioid, Fluo-4 calcium (AID 434942); assay type: functional;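 further: potency of inhibitors blocking the TRPC4 calcium response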
T2 sequence (Q9QUQ5 whole entry): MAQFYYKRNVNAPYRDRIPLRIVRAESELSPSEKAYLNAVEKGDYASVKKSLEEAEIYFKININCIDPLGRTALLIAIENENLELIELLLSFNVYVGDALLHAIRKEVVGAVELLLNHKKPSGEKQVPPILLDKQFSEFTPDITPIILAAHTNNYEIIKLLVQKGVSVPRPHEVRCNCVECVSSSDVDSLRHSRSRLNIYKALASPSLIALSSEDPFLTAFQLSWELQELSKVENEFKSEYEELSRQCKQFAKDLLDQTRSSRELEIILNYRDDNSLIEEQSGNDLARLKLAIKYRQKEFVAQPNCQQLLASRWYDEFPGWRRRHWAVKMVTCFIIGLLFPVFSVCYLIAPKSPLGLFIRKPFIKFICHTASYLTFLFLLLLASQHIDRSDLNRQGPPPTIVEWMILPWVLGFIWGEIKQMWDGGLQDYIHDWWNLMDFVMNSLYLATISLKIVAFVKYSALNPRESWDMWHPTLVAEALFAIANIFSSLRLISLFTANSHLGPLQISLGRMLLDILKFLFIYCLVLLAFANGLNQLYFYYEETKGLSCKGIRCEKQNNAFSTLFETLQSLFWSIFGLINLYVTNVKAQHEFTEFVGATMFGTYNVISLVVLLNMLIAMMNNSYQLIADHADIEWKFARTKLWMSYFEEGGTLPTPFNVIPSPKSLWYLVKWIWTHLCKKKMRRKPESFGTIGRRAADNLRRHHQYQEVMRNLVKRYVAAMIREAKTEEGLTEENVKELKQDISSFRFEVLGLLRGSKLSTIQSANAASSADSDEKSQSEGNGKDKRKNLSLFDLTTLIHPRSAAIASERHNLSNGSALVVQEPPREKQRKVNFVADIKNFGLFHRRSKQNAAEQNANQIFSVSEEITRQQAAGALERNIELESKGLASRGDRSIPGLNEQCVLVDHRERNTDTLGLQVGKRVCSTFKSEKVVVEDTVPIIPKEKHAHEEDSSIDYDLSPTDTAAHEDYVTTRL

[3] = target: Beta-2 adrenergic receptor (Homo sapiens, UniProt P07550); assay: beta2AR agonists driving receptor internalization, dose response, cell-based, FAP fluorogen, flow cytometry, cherry pick 1 (AID 588763); assay type: functional
Chain of Beta-2 adrenergic receptor (P07550 whole entry): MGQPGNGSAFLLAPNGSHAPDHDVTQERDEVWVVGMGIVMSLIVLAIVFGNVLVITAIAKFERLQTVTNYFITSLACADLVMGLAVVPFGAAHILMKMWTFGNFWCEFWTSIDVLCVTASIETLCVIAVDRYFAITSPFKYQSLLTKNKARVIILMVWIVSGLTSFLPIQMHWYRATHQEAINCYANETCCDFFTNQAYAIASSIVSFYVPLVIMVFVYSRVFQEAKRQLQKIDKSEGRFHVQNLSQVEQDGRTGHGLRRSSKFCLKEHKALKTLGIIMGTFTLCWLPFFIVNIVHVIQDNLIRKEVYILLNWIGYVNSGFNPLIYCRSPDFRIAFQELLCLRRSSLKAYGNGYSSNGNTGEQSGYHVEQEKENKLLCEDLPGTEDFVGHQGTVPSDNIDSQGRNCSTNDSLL

[4] = target: DNA dC->dU-editing enzyme APOBEC-3A (Homo sapiens, UniProt P31941); assay: Dose Response confirmation of small molecule APOBEC3A DNA Deaminase Inhibitors via a fluorescence-based single-stranded DNA deaminase assay. [Related pubchem assays (depositor defined):AID493011, AID493024]; assay type: functional
Chain of DNA dC->dU-editing enzyme APOBEC-3A (P31941 whole entry, the tested form may be a part): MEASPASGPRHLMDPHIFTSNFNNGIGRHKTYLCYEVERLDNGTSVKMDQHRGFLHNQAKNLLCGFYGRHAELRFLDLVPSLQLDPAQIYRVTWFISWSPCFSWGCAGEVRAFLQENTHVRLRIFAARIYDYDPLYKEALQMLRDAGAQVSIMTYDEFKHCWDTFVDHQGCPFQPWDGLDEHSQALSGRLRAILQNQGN

[5] = target: T3, Carboxy-terminal domain RNA polymerase II polypeptide A small phosphatase 1 (Homo sapiens, UniProt Q9GZU7); assay: inhibitors of CTDSP1, concentration-response testing, biochemical assay, absorbance-based, actives from ultra-high-throughput screening (AID 540297); assay type: functional
T3 sequence (Q9GZU7 whole entry): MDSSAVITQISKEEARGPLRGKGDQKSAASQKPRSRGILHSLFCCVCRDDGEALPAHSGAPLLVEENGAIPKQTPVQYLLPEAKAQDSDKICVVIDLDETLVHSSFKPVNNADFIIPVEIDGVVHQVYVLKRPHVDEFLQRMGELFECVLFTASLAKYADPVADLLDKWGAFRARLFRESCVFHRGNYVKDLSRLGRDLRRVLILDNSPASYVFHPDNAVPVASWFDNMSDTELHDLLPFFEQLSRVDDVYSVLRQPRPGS

[6] = target: DNA dC->dU-editing enzyme APOBEC-3G (Homo sapiens, UniProt Q9HC16); assay type: functional;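 further: Dose-response counterscreen measuring inhibition of APOBEC3G DNA deaminase activity, run while confirming APOBEC3A inhibitors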
Chain of DNA dC->dU-editing enzyme APOBEC-3G (Q9HC16 whole entry): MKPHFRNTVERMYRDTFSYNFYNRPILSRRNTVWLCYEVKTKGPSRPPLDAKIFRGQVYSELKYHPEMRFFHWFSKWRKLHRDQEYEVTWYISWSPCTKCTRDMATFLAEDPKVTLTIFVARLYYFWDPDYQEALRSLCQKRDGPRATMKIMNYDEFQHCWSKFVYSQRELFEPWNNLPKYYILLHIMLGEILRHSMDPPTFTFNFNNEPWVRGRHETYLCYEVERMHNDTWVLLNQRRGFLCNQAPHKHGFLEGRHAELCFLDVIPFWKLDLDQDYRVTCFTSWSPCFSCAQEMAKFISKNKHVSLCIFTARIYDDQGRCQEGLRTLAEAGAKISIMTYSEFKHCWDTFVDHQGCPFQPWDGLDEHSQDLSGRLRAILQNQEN

Cytochrome P450 3A4 [7] = target: T4, Cytochrome P450 3A4 (Homo sapiens, UniProt P08684);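 further: CYP3A4 tested as one member of a cytochrome P450 panel screen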
T4 sequence (P08684 whole entry): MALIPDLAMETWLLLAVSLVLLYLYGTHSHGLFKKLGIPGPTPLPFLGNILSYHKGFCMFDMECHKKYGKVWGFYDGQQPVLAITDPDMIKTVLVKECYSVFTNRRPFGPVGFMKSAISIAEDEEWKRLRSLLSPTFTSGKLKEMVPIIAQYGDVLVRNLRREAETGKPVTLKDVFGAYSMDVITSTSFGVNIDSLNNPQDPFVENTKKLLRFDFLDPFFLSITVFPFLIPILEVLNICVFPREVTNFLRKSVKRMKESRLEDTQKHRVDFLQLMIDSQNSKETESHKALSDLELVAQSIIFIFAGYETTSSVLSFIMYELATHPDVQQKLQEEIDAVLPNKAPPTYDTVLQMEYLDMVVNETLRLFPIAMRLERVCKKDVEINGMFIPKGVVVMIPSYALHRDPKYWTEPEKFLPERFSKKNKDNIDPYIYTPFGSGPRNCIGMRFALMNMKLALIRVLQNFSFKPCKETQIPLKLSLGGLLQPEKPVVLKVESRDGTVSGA

Protein skinhead-1 = target: T5, Protein skinhead-1 (Caenorhabditis elegans, UniProt P34707); assay type: functional
T5 sequence (P34707 whole entry): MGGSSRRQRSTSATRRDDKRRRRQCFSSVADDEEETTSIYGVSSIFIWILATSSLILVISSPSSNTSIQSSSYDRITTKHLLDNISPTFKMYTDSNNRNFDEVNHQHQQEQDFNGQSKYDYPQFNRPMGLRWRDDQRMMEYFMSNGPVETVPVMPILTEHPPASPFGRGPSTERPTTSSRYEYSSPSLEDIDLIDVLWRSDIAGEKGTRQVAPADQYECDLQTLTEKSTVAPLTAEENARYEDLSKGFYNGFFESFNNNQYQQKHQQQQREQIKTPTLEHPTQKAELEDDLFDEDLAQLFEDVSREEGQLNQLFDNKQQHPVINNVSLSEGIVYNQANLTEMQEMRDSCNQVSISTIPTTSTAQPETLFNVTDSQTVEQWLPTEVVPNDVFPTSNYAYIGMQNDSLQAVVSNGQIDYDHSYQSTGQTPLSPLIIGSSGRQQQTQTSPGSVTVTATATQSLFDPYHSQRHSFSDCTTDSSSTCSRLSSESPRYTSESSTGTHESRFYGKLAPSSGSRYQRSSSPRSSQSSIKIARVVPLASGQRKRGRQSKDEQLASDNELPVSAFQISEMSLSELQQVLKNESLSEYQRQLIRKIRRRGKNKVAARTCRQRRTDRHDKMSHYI

Cytochrome P450 3A4 [8] = target: T4, Cytochrome P450 3A4; remark: listed apart in the source
Cytochrome P450 2C9 = Cytochrome P450 2C9 (Homo sapiens, UniProt P11712)
Chain of Cytochrome P450 2C9 (P11712 whole entry): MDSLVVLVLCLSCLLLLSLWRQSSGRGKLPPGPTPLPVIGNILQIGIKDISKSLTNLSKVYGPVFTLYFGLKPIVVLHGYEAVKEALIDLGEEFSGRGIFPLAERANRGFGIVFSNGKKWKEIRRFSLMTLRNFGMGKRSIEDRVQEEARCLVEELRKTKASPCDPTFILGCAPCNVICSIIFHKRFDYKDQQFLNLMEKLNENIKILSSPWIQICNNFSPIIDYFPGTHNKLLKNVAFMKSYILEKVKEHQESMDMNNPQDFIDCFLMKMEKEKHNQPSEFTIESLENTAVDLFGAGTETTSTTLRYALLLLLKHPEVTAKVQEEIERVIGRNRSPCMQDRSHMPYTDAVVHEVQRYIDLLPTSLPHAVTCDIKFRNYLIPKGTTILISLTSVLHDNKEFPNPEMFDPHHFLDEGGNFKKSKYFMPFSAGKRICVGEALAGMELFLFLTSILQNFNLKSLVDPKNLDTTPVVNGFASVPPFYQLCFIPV

Cytochrome P450 1A2 = target: T6, Cytochrome P450 1A2 (Homo sapiens, UniProt P05177);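 further: PubChem cytochrome P450 panel assay, CYP1A2 panel member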
T6 sequence (P05177 whole entry): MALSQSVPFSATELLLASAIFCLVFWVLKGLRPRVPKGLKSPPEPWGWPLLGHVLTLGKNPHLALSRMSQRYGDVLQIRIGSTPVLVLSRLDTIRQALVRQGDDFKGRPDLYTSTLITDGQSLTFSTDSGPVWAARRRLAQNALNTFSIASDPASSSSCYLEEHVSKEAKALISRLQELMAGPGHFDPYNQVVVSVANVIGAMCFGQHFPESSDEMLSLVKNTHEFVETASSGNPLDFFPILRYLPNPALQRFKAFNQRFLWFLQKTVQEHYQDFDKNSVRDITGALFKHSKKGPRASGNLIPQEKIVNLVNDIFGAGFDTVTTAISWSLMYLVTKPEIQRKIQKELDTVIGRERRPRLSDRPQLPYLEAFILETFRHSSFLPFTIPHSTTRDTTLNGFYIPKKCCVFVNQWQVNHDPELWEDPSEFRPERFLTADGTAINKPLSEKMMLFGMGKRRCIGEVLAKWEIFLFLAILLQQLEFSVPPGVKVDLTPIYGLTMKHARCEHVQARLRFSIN

Cytochrome P450 2C19 = Cytochrome P450 2C19 (Homo sapiens, UniProt P33261); assay: Cytochrome panel assay with activity outcomes. Panel member name: p450-cyp2c19 Compounds with AC50 equal or less than 10 uM are considered active; assay type: functional
Chain of Cytochrome P450 2C19 (P33261 whole entry): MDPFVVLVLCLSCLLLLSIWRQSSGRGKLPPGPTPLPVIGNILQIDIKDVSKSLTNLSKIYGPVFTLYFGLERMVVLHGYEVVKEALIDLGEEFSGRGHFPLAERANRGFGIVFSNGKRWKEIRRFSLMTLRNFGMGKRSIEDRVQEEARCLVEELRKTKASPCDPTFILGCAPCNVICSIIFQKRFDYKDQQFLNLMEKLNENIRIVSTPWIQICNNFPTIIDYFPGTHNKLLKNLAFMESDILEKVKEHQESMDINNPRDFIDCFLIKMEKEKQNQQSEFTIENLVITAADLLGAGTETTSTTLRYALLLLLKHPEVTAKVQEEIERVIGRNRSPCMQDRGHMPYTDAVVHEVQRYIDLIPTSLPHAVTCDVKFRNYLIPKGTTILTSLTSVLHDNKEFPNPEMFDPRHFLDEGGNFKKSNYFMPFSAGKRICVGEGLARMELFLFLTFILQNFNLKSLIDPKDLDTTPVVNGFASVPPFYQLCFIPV

Cn1c(-c2ccccc2)cnc1NCc1ccccc1
IC50 [1]: 11.5 µM (active)
EC50 [2]: 5.31 µM (active)

COc1ccc(C2=NN(C(=O)c3cccs3)C(c3ccc(OC)cc3)C2)cc1 (stereo unspecified)
EC50 [3]: 4.84 µM (active)

C[n+]1ccc(C(=O)NCc2ccccc2)cc1 [ENISAMIUM IODIDE]
IC50 [4]: 2.98 µM (active)
IC50 [5]: 9.76 µM (active)
IC50 [6]: 4.98 µM (active)

CC(C)OC(=O)CN1CCN(C2c3ccccc3-c3ccccc32)CC1
IC50 [1]: 10.7 µM (active)
AC50 (Cytochrome P450 3A4 [7]): 25.1 µM (inconclusive)
IC50 (Protein skinhead-1): > 100 µM (inactive)

Cc1ncc(CN2CCCC(C(=O)Nc3ccc(-c4cccc(F)c4)cc3)C2)cn1 (stereo unspecified)
EC50 [3]: 0.695 µM (active)

Fc1ccc(C(c2ccc(F)cc2)N2CCN(C/C=C\c3ccccc3)CC2)cc1
AC50 (Cytochrome P450 3A4 [8]): inactive; also recorded: inconclusive
AC50 (Cytochrome P450 2C9): 39.8 µM (inconclusive) and 20 µM (inconclusive) and 15.8 µM (inconclusive)
AC50 (Cytochrome P450 1A2): 15.8 µM (inconclusive) (2×) and 25.1 µM (inconclusive)
AC50 (Cytochrome P450 2C19): inactive

c1ccc(CN2CCC3(CCc4ccccc43)CC2)cc1
AC50 (Cytochrome P450 3A4 [8]): inconclusive
AC50 (Cytochrome P450 2C9): 39.8 µM (inconclusive)
AC50 (Cytochrome P450 1A2): 31.6 µM (inconclusive)

CC(C)c1nnc(NC(=O)CCC(=O)N2CCN(c3ccccn3)CC2)s1
AC50 (Cytochrome P450 3A4 [8]): inconclusive
AC50 (Cytochrome P450 2C9): 7.08 µM (inconclusive)
AC50 (Cytochrome P450 2C19; read-out: AC50): 28.2 µM (inconclusive)

C[C@H]1CN([C@@H](C)CO)C(=O)Cc2cc(NS(=O)(=O)c3cn(C)cn3)ccc2O[C@@H]1CN(C)C(=O)Nc1ccc(F)cc1
IC50 [5]: 33.7 µM (active)
